From patent US12017994B2 (SYMBERIX, INC., priority 2017, dated 2024)
Values joined by “and” are separate entries in the source; they are usually repeats but may differ in a detail not shown here. Equal values may be shown once. “Also recorded” adds a separate entry of the source. Read-outs that look alike come from different tables or passages of the source.

Experiments:
[1] = tested on: β-glucuronidase activity in live, cultured bacterial cells; experiment: β-glucuronidase activity in live, cultured bacterial cells (PNPG substrate); assay type: cell-based; details: 2 hour incubation
[2] = molecular target: purified E. coli GUS (Escherichia coli (strain K12), UniProt P05804); experiment: PNPG-PNP GUS cleavage assay, purified E. coli GUS; assay type: biochemical; details: preincubation one minute to four hours
[3] = molecular target: E. coli GUS (Escherichia coli (strain K12), UniProt P05804); details: 30 minutes incubation, then NAD+ and UDH
Source text: Addition of UDH and nicotinamide adenine dinucleotide (NAD+) to a reaction solution containing free GA results in the catalysis of free GA to D-glucurate and the concomitant reduction of NAD+ to NADH. NADH can be detected photometrically by monitoring absorbance at 340 nm (FIG. 4).

[4] = tested on: GUS activity in live E. coli; experiment: PNPG-PNP GUS cleavage assay, live E. coli
[5] = molecular target: Purified bacterial β-glucuronidases (Escherichia coli, UniProt P05804); assay type: biochemical; details: PNPG substrate, 5 nM enzyme
Source text: Successful drug candidate compounds were subjected to numerous biochemical and cellular assays. Purified bacterial β-glucuronidases were challenged with compounds to determine inhibition properties in a standard, robust activity assay, utilizing p-nitrophenyl glucuronide (PNPG) as the enzymatic substrate.

[6] = parent compound, read-out: Cell Based Inhibition IC50 (nM) Parent

Chain of E. coli GUS (P05804 whole entry, looked up): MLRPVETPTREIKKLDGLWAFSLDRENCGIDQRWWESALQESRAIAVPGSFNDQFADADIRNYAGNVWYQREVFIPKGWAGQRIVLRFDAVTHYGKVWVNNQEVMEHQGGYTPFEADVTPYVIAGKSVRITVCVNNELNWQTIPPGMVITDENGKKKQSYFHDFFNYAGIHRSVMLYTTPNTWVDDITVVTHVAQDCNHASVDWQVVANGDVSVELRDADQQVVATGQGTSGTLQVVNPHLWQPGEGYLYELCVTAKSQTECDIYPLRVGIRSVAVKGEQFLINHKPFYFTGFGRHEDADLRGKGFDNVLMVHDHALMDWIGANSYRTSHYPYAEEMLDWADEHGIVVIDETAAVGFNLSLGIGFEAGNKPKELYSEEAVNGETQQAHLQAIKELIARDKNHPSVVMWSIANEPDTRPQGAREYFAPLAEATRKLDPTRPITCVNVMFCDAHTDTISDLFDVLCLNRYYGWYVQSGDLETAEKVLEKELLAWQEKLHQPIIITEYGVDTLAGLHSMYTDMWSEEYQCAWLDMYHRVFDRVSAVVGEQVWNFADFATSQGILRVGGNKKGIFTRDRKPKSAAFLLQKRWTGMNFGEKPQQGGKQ
Chain of purified E. coli GUS (P05804 whole entry, looked up): as above

In the case of `CCOc1ccc(NC(=O)N(CCO)Cc2cc3cc(C)cc(C)c3[nH]c2=O)cc1`, the IC50 [1, 6] is reported as 890 nM.
With `CCOc1ccc(NC(=S)N(CCO)Cc2cc3cc(C)cc(C)c3[nH]c2=O)cc1` [Inh1, reference compound] the IC50 [1, 6] was 890 nM.
`CCOc1ccc(NC(=S)N(CCO[C@@H]2O[C@H](C(=O)O)[C@@H](O)[C@H](O)[C@H]2O)Cc2cc3cc(C)cc(C)c3[nH]c2=O)cc1` [Inh1-G] was tested, and the IC50 [2] was roughly 1000 nM, the “free GA / NADH formation after incubation with E. coli GUS (cleavage by GUS)” value [3] was “No free GA was detected; also recorded: does not cleave” and the “increase in potency in live E. coli” value ([4]; 1-min pre-incubation) was “approximately 20 fold”. For the same compound, the “increase in potency in live E. coli” value ([4]; 2-hr pre-incubation) was roughly 100 fold, the “increase in potency in live E. coli” value ([4]; 4-hr pre-incubation) was ~1000 fold and > 1000 fold and the IC50 ([4]; read-out: IC50 in live E. coli, after 4 hr incubation) was 1 nM. It also gave an IC50 ([1]; glucuronide of the compound, read-out: Cell Based Inhibition IC50 (nM) Glucuronide) of 8.8 nM.
In the case of `Cc1cc(C)c2[nH]c(=O)c(CN(CCO)C(=O)Nc3ccccc3-c3ccccc3)cc2c1` [Ref #14′, 1-[(6,8-dimethyl-2-oxo-1H-quinolin-3-yl)methyl]-1-(2-hydroxyethyl)-3-(2-phenylphenyl)urea], the IC50 [5] is reported as 6160 nM and 6440 nM.
Work on `Cc1cc(C)c2[nH]c(=O)c(CN(CCO)C(=O)Nc3cccnc3)cc2c1` [Ref #18′, 1-[(6,8-dimethyl-2-oxo-1H-quinolin-3-yl)methyl]-1-(2-hydroxyethyl)-3-(3-pyridyl)urea] yielded an IC50 [5] greater than 50000 nM.
`Cc1cc(C)c2[nH]c(=O)c(C(C)N(CCO)C(=O)Nc3ccccc3C(C)C)cc2c1` (stereo not shown) [Ref #29′, 1-[1-(6,8-dimethyl-2-oxo-1H-quinolin-3-yl)ethyl]-1-(2-hydroxyethyl)-3-(2-isopropylphenyl)urea] showed an IC50 [5] of 6440 nM.
For `Cc1cc(C)c2[nH]c(=O)c(C(C)N(CCO)C(=O)Nc3ccc(F)cc3I)cc2c1` (stereo not shown) [Ref #30′, 1-[1-(6,8-dimethyl-2-oxo-1H-quinolin-3-yl)ethyl]-3-(4-fluoro-2-iodo-phenyl)-1-(2-hydroxyethyl)urea], the IC50 [5] was 13000 nM.
`Cc1cc(C)c2[nH]c(=O)c(C(C)N(CCO)C(=O)Nc3ccccc3C)cc2c1` (stereo not shown) [Ref #31′, 1-[1-(6,8-dimethyl-2-oxo-1H-quinolin-3-yl)ethyl]-1-(2-hydroxyethyl)-3-(o-tolyl)urea] was tested, and the IC50 [5] was greater than 50000 nM.
`COc1ccc(NC(=O)N(CCO)C(C)c2cc3cc(C)cc(C)c3[nH]c2=O)cc1` (stereo not shown) [Ref #34′, 1-[1-(6,8-dimethyl-2-oxo-1H-quinolin-3-yl)ethyl]-1-(2-hydroxyethyl)-3-(4-methoxyphenyl)urea] was tested, and the IC50 [5] was greater than 50000 nM.
Compound `Cc1cccc(NC(=O)N(CCO)Cc2cc3cc(C)cc(C)c3[nH]c2=O)c1` [Ref #38′, 1-[(6,8-dimethyl-2-oxo-1H-quinolin-3-yl)methyl]-1-(2-hydroxyethyl)-3-(m-tolyl)urea] has an IC50 [5] of 1660 nM.
With `Cc1cc(C)c2[nH]c(=O)c(CN(CCO)C(=O)Nc3cccc(C(C)C)c3)cc2c1` [Ref #41′, 1-[(6,8-dimethyl-2-oxo-1H-quinolin-3-yl)methyl]-1-(2-hydroxyethyl)-3-(3-isopropylphenyl)urea] the IC50 [5] was 6730 nM.
`C#Cc1cc(F)ccc1NC(=O)N(CCO)Cc1cc2cc(C)cc(C)c2[nH]c1=O` [Ref #45′, 1-[(6,8-dimethyl-2-oxo-1H-quinolin-3-yl)methyl]-3-(2-ethynyl-4-fluoro-phenyl)-1-(2-hydroxyethyl)urea] gave an IC50 [5] of 1100 nM.
With “chenodeoxycholate-glucuronide [reference compound]” the “free GA / NADH formation after incubation with E. coli GUS (cleavage by GUS)” value [3] was “detected only for the positive control”.
